Measured values: ChEMBL document CHEMBL4196086, “Recent advances of imidazole-containing derivatives as anti-tubercular agents” (Eur J Med Chem, 2018)
In brackets after ≈: the same amount, converted by molar mass.

Tests used:
[1] = test system: Mycobacterium tuberculosis; assay: Antimycobacterial activity against Mycobacterium tuberculosis; assay type: functional
[2] = test system: Mycobacterium tuberculosis; assay: Antimycobacterial activity against Mycobacterium tuberculosis H37Rv; assay type: functional; conditions: for MIC: Mycobacterium tuberculosis, H37Rv
[3] = test system: Mycobacterium tuberculosis; assay: Growth inhibition of Mycobacterium tuberculosis H37Rv at 100 ug/ml relative to control; assay type: functional; conditions: read-out: GI
[4] = test system: Mycobacterium tuberculosis; assay: Antimycobacterial activity against non-replicating Mycobacterium tuberculosis; assay type: functional
[5] = test system: Mycobacterium tuberculosis; assay: Antimycobacterial activity against Mycobacterium tuberculosis H37Rv ATCC 27294 by MABA; assay type: functional
[6] = Selectivity index, ratio of IC50 for African green monkey Vero cells to MIC for Mycobacterium tuberculosis H37Rv ATCC 27294; assay type: toxicity; conditions: read-out: Selectivity Index
[7] = test system: Mycobacterium tuberculosis; assay: Antimycobacterial activity against replicating Mycobacterium tuberculosis; assay type: functional
[8] = Inhibition of Mycobacterium tuberculosis IMPDH
[9] = test system: Mycolicibacterium smegmatis; assay: Antimycobacterial activity against Mycobacterium smegmatis; assay type: functional
[10] = test system: Mycolicibacterium fortuitum; assay: Antimycobacterial activity against Mycobacterium fortuitum; assay type: functional
[11] = test system: Mycobacterium tuberculosis; assay: Antimycobacterial activity against Mycobacterium tuberculosis ATCC 27294; assay type: functional
[12] = test system: Mycobacterium tuberculosis; assay: Antimycobacterial activity against Mycobacterium tuberculosis ATCC 35828; assay type: functional
[13] = test system: Mycobacterium tuberculosis; assay: Antimycobacterial activity against Mycobacterium tuberculosis ATCC 35820; assay type: functional
[14] = test system: Mycobacterium tuberculosis; assay: Antimycobacterial activity against Mycobacterium tuberculosis ATCC 35822; assay type: functional
[15] = test system: Mycobacterium tuberculosis; assay: Antimycobacterial activity against Mycobacterium tuberculosis ATCC 35837; assay type: functional
[16] = test system: Mycobacterium tuberculosis; assay: Antimycobacterial activity against Mycobacterium tuberculosis H37Rv in logarithmic phase; assay type: functional
[17] = test system: Mycobacterium tuberculosis; assay: Antimycobacterial activity against Mycobacterium tuberculosis H37Rv in hypoxia-induced latent phase; assay type: functional
[18] = test system: Mycobacterium tuberculosis; assay: Antimycobacterial activity against Mycobacterium tuberculosis H37Rv ATCC 27294 by serial dilution assay; assay type: functional
[19] = test system: Mycobacterium tuberculosis; assay: Potency index, ratio of pyrazinamide MIC to compound MIC for Mycobacterium tuberculosis H37Rv; assay type: functional
[20] = test system: Mycobacterium tuberculosis; assay: Potency index, ratio of streptomycin MIC to compound MIC for Mycobacterium tuberculosis H37Rv; assay type: functional
[21] = test system: Mycobacterium tuberculosis; assay: Potency index, ratio of isoniazid MIC to compound MIC for Mycobacterium tuberculosis H37Rv; assay type: functional
[22] = test system: Mycobacterium tuberculosis; assay: Potency index, ratio of ciprofloxacin MIC to compound MIC for Mycobacterium tuberculosis H37Rv; assay type: functional
[23] = test system: HEK293; assay: Cytotoxicity against HEK293 cells after 24 hrs by MTT assay; assay type: cell-based; conditions: Homo sapiens, HEK293, 24 h
[24] = test system: Mycobacterium tuberculosis; assay: Antimycobacterial activity against Mycobacterium tuberculosis H37Rv after 5 days by MABA; assay type: functional; conditions: 120 h

For `O=C1/C(=C\c2ccc(Br)cc2)SC(c2ccc(-n3ccnc3)cc2)N1Nc1ccccc1` (stereo unspecified), the MIC [1] was 14.3 to 49.7 µM (≈ 7.18 to 25 µg/mL).

In the case of `Fc1cc2nc(Cn3ccnc3)[nH]c2cc1-n1ccnc1`, the MIC [2] is reported as 12.5 to 100 µg/mL (≈ 44.3 to 354 µM).

Compound `Cc1ccc2c(c1)cc(-c1nc(-c3ccccc3)c(-c3ccccc3)n1-c1ccccc1)c1nnnn12` has an inhibition of growth at 100 µg/mL [3] of 17 to 99%.

In the case of `COc1ccc(-n2c(-c3cc4ccccc4n4nnnc34)nc(-c3ccccc3)c2-c2ccccc2)cc1`, the inhibition of growth at 100 µg/mL [3] is reported as 17 to 99%.

`CCc1nc2ccc(C)cc2n1CCCNc1ccc(C)cc1` gave an MIC [4] of 0.056 to 0.88 µM.

Work on `Cc1ccc(-n2c(-c3cc4cc(C)ccc4n4nnnc34)nc(-c3ccccc3)c2-c2ccccc2)cc1` yielded an inhibition of growth at 100 µg/mL [3] of 17 to 99%.

With `CS(=O)(=O)c1nnc(-c2ncc([N+](=O)[O-])[nH]2)s1` the MIC [5] was greater than 6.25 µg/mL and the selectivity ratio [6] was 0.3 to 0.6.

Work on `CCCc1cc(=O)oc2c1c(OC)cc1[nH]c(C(=O)N(C)C)[n+]([O-])c12` yielded an MIC [7] greater than 50 µg/mL and an MIC [4] greater than 50 µg/mL.

In the case of `COc1ccc(NC(=O)Cn2c(-c3cscn3)nc3ccccc32)c(OC)c1`, the IC50 [8] is reported as 3 to 10 µM.

In the case of `C[S+]([O-])c1nnc(-c2ncc([N+](=O)[O-])[nH]2)s1` (stereo unspecified), the MIC [5] is reported as 1.56 µg/mL (≈ 6.02 µM) and the selectivity ratio [6] is reported as 0.3 to 0.6.

With `CCc1nc2ccc(C)cc2n1CCCNc1ccc(C)cc1C` the MIC [4] was 0.056 to 0.88 µM.

With `Clc1ccc(-n2ncc(C(c3ccccc3)n3ccnc3)c2-c2ccccc2Cl)c(Cl)c1` (stereo unspecified) the MIC [9] was 6.7 to 57.7 µM (≈ 3.21 to 27.7 µg/mL), the MIC [10] was 6.7 to 57.7 µM (≈ 3.21 to 27.7 µg/mL) and the MIC [11] was 6.7 to 57.7 µM (≈ 3.21 to 27.7 µg/mL). It also gave an MIC [12] of 6.7 to 57.7 µM (≈ 3.21 to 27.7 µg/mL), an MIC [13] of 6.7 to 57.7 µM (≈ 3.21 to 27.7 µg/mL) and an MIC [14] of 6.7 to 57.7 µM (≈ 3.21 to 27.7 µg/mL). The MIC [15] was 6.7 to 57.7 µM (≈ 3.21 to 27.7 µg/mL).

`COc1ccc(-c2nc3ccc(-c4ccc5nc(-c6ccccc6)[nH]c5c4)cc3[nH]2)cc1` gave an MIC [16] of 0.25 to 1 µg/mL (≈ 0.6 to 2.4 µM) and an MIC [17] of 0.25 to 1 µg/mL (≈ 0.6 to 2.4 µM).

For `CCc1nc2ccc(C)cc2n1CCCNc1ccc(OC)cc1`, the MIC [4] was 0.056 to 0.88 µM.

`COc1ccc(-n2c(-c3cc4cc(C)ccc4n4nnnc34)nc(-c3ccccc3)c2-c2ccccc2)cc1` showed an inhibition of growth at 100 µg/mL [3] of 17 to 99%.

`O=C(Cn1c(-c2cscn2)nc2ccccc21)Nc1ccc([N+](=O)[O-])cc1` gave an IC50 [8] of 3 to 10 µM.

For `Fc1cc2nc(Cn3ccnc3)[nH]c2cc1Oc1ccc(Cl)cc1`, the MIC [2] was 12.5 to 100 µg/mL (≈ 36.5 to 292 µM).

Compound `CCc1nc2ccc(C)cc2n1CCCNc1ccccc1` has an MIC [4] of 0.056 µM.

`CCCOc1cccc(NC(=O)Cn2c(-c3cscn3)nc3ccccc32)c1` showed an IC50 [8] of 3 to 10 µM.

For `CCCSc1nnc(-c2ncc([N+](=O)[O-])n2C)s1`, the MIC [18] was 3.12 µg/mL (≈ 10.9 µM).

In the case of `CCc1nc2ccc(C)cc2n1CCCSc1ccc(OC)cc1`, the MIC [4] is reported as 0.056 to 0.88 µM.

For `CCc1nc2ccc(C)cc2n1CCCCSc1ccccc1`, the MIC [4] was 0.056 to 2.6 µM.

`CCC[S+]([O-])c1nnc(-c2ncc([N+](=O)[O-])[nH]2)s1` (stereo unspecified) gave an MIC [5] of 1.56 µg/mL (≈ 5.43 µM) and a selectivity ratio [6] of 0.3 to 0.6.

Compound `CSc1nnc(-c2ncc([N+](=O)[O-])[nH]2)s1` has an MIC [5] of 3.13 to 6.25 µg/mL (≈ 12.9 to 25.7 µM).

For `COc1ccc2c(c1)cc(-c1nc(-c3ccccc3)c(-c3ccccc3)n1-c1ccccc1)c1nnnn12`, the inhibition of growth at 100 µg/mL [3] was 17 to 99%.

`Cc1ccc(/C=C2/SC(c3ccc(-n4ccnc4)cc3)N(Nc3ccccc3)C2=O)cc1` (stereo unspecified) showed an MIC [1] of 14.3 to 49.7 µM (≈ 6.26 to 21.8 µg/mL).

For `CCc1nc2ccc(C)cc2n1CCCCNc1cccc(Cl)c1`, the MIC [4] was 0.056 to 2.6 µM.

`CCCc1cc(=O)oc2c1c(OCCN1CCOCC1)cc1[nH]c(C(=O)N(C)C)[n+]([O-])c12` gave an MIC [7] greater than 50 µg/mL and an MIC [4] greater than 50 µg/mL.

For `O=C(Cn1c(-c2cscn2)nc2ccccc21)Nc1ccccc1`, the IC50 [8] was 3 to 10 µM.

`CCc1nc2ccc(C)cc2n1CCCCSc1ccc(OC)cc1` gave an MIC [4] of 0.056 to 2.6 µM.

`Fc1cc2nc(Cn3ccnc3)[nH]c2cc1Cl` showed an MIC [2] of 12.5 to 100 µg/mL (≈ 49.9 to 399 µM).

In the case of `CCOc1ccc(-c2nc3ccc(-c4ccc5nc(-c6ccc(OCC)cc6)[nH]c5c4)cc3[nH]2)cc1`, the MIC [16] is reported as 0.5 to 16 µg/mL (≈ 1.05 to 33.7 µM) and the MIC [17] is reported as 0.5 to 16 µg/mL (≈ 1.05 to 33.7 µM).

Compound `Cn1c(-c2cccc(Cl)c2F)nc2cc(-c3nc(-c4ccc(Cl)cc4)no3)ccc21` has a Ratio [19] of 2, a Ratio [20] of 4 and a Ratio [21] of 4. It also gave a Ratio [22] of 2, an IC50 [23] greater than 500 µg/mL and an MIC [24] of 1.6 to 25 µg/mL (≈ 3.64 to 56.9 µM).

`Nc1ccc(-c2nc3cc(-c4ccc5[nH]c(-c6ccc(N)cc6)nc5c4)ccc3[nH]2)cc1` gave an MIC [16] of 0.5 to 16 µg/mL (≈ 1.2 to 38.4 µM) and an MIC [17] of 0.5 to 16 µg/mL (≈ 1.2 to 38.4 µM).

Compound `O=C(O)c1cn(C2CC2)c2cc(N3CCNCC3)c(F)cc2c1=O` [CIPROFLOXACIN] has an MIC [24] of 3.12 µg/mL (≈ 9.43 µM).

`NNC(=O)c1ccncc1` [ISONIAZID] gave an MIC [2] of 0.2 µg/mL (≈ 1.46 µM) and an MIC [24] of 6.25 µg/mL (≈ 45.6 µM).

Compound `NC(=O)c1cnccn1` [PYRAZINAMIDE] has an MIC [24] of 3.12 µg/mL (≈ 25.4 µM).

With `CO[C@H]1/C=C/O[C@@]2(C)Oc3c(C)c(O)c4c(O)c(c(/C=N/N5CCN(C)CC5)c(O)c4c3C2=O)NC(=O)/C(C)=C\C=C\[C@H](C)[C@H](O)[C@@H](C)[C@@H](O)[C@@H](C)[C@H](OC(C)=O)[C@@H]1C` [RIFAMPIN] the MIC [18] was 0.125 to 0.25 µg/mL (≈ 0.152 to 0.304 µM) and the MIC98 [2] was 40 µg/mL (≈ 48.6 µM).

`CN[C@@H]1[C@H](O[C@H]2[C@H](O[C@H]3[C@H](O)[C@@H](O)[C@H](N=C(N)N)[C@@H](O)[C@@H]3N=C(N)N)O[C@@H](C)[C@]2(O)C=O)O[C@@H](CO)[C@H](O)[C@H]1O` [STREPTOMYCIN] showed an MIC [2] of 0.7 µg/mL (≈ 1.2 µM) and an MIC [24] of 6.25 µg/mL (≈ 10.7 µM).
